According to patent US9833497B2, “Human originated EGF domain proteins and use of the same” (CHENGDU SOURCEBIO LIMITED-LIABILITY COMPANY, priority 2013, dated 2017):

Assays:
Type in all cases: cell-based
Serratia marcescens = assay: MIC against Gram-negative bacteria: Serratia marcescens; settings: 5×10^5 CFU/mL; for MIC against S. marcescens: Serratia marcescens
Procedure, shortened: (§1)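 Bacteria grown in LB at 37° C with shaking to McFarland 0.5, pelleted and resuspended in fresh LB, then seeded at 5×10^5 CFU/mL per well. Purified recombinant human EGF domain proteins were two-fold serially diluted in triplicate and plates shaken at 37° C, 175 rpm. MIC is the lowest protein concentration with no bacterial growth.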

E. coli DH5α = assay: Antibacterial activity: MIC and growth curve against E. coli DH5α in 96-well plate; settings: minimal inhibitory concentration against E. coli DH5α; 96-well plate, 5×10^5 CFU/mL, 37° C., judged after 8 h
Procedure, shortened: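 Log-phase bacteria (OD600 ~0.5) resuspended in LB at 5×10^5 CFU/mL, exposed to recombinant protein at 50, 25, 12.5 μg/mL final in triplicate, 37 °C shaking at 175 rpm. OD600 read every 30 min; MIC is lowest concentration showing no growth.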

Klebsiella pneumonia = assay: MIC against Gram-negative bacteria: Klebsiella pneumonia; settings: 5×10^5 CFU/mL; for MIC against K. pneumonia: Klebsiella pneumonia
Procedure, shortened: as §1

Citrobacter diversus = assay: MIC against Gram-negative bacteria: Citrobacter diversus; settings: 5×10^5 CFU/mL; for MIC against C. diversus: Citrobacter diversus
Procedure, shortened: as §1

Aeromonas hydrophila = assay: MIC against Gram-negative bacteria: Aeromonas hydrophila; settings: 5×10^5 CFU/mL; for MIC against A. hydrophila: Aeromonas hydrophila
Procedure, shortened: as §1

Enterobacter cloacae = assay: MIC against Gram-negative bacteria: Enterobacter cloacae; settings: 5×10^5 CFU/mL; for MIC against E. cloacae: Enterobacter cloacae
Procedure, shortened: as §1

Pseudomonas aeruginosa = assay: MIC against Gram-negative bacteria: Pseudomonas aeruginosa; settings: 5×10^5 CFU/mL; for MIC against P. aeruginosa: Pseudomonas aeruginosa
Procedure, shortened: as §1

Moraxella catarrhalis = assay: MIC against Gram-negative bacteria: Moraxella catarrhalis; settings: 5×10^5 CFU/mL; for MIC against M. catarrhalis: Moraxella catarrhalis
Procedure, shortened: as §1

E. coli BL21 = assay: MIC against Gram-negative bacteria: E. coli BL21; settings: 5×10^5 CFU/mL
Procedure, shortened: as §1

Proteus vulgaris = assay: MIC against Gram-negative bacteria: Proteus vulgaris; settings: 5×10^5 CFU/mL; for MIC against P. vulgaris: Proteus vulgaris
Procedure, shortened: as §1

Proteus mirabilis = assay: MIC against Gram-negative bacteria: Proteus mirabilis; settings: 5×10^5 CFU/mL; for MIC against P. mirabilis: Proteus mirabilis
Procedure, shortened: as §1

[1] = 10 h cultivation at 37° C., two-fold serial dilution

| Substance | MIC against S. marcescens (Serratia marcescens; 10 h cultivation at 37° C.) | MIC (E. coli DH5α) | MIC against K. pneumonia (Klebsiella pneumonia; 10 h cultivation at 37° C.) | MIC against C. diversus (Citrobacter diversus; 10 h cultivation at 37° C.) | MIC against A. hydrophila (Aeromonas hydrophila; 10 h cultivation at 37° C.) | MIC against E. cloacae (Enterobacter cloacae; 10 h cultivation at 37° C.) | MIC against P. aeruginosa (Pseudomonas aeruginosa; 10 h cultivation at 37° C.) | MIC against M. catarrhalis (Moraxella catarrhalis; 10 h cultivation at 37° C.) | MIC against E. coli BL21 (E. coli BL21; 10 h cultivation at 37° C.) | MIC against P. vulgaris (Proteus vulgaris; 10 h cultivation at 37° C.) | MIC against P. mirabilis (Proteus mirabilis; 10 h cultivation at 37° C.) | MIC (μg/mL) S. marcescens (Serratia marcescens; 10 h cultivation at 37° C.) | MIC (μg/mL) K. pneumonia (Klebsiella pneumonia; 10 h cultivation at 37° C.) | MIC (μg/mL) C. diversus (Citrobacter diversus; 10 h cultivation at 37° C.) | MIC (μg/mL) A. hydrophila (Aeromonas hydrophila; 10 h cultivation at 37° C.) | MIC (μg/mL) E. cloacae (Enterobacter cloacae; 10 h cultivation at 37° C.) | MIC (μg/mL) P. aeruginosa (Pseudomonas aeruginosa; 10 h cultivation at 37° C.) | MIC (μg/mL) M. catarrhalis (Moraxella catarrhalis; 10 h cultivation at 37° C.) | MIC (μg/mL) E. coli BL21 (E. coli BL21; 10 h cultivation at 37° C.) | MIC (μg/mL) P. vulgaris (Proteus vulgaris; 10 h cultivation at 37° C.) | further results |
| --- | --- | --- | --- | --- | --- | --- | --- | --- | --- | --- | --- | --- | --- | --- | --- | --- | --- | --- | --- | --- | --- |
| PRT1481 (PVNLCKPSPCMNEGSCVLQNGSYRCKCRDGWEGPHCE; listed as Homo sapiens) | 25 µg/mL | 12.5 µg/mL | 12.5 µg/mL | 12.5 µg/mL | 25 µg/mL | 50 µg/mL | 50 µg/mL | 50 µg/mL | 25 µg/mL | 50 µg/mL | 12.5 µg/mL |  |  |  |  |  |  |  |  |  |  |
| PRT158 (PGESHANDLECSGKGKCTTKPSEATFSCTCEEQYVGTFCE; listed as Homo sapiens) |  | 12.5 µg/mL |  |  |  |  |  |  |  |  |  | 12.5 µg/mL | 12.5 µg/mL | 12.5 µg/mL | 25 µg/mL | 50 µg/mL | 50 µg/mL | 25 µg/mL | 12.5 µg/mL | 25 µg/mL | MIC (μg/mL) P. mirabilis (Proteus mirabilis; 10 h cultivation at 37° C.): 50 µg/mL |
| PRT1326 (AINACEISNGGCSAKADCKRTTPGRRVCTCKAGYTGDGIVCL; listed as Homo sapiens) |  | 50 µg/mL |  |  |  |  |  |  |  |  |  |  |  |  |  |  |  |  |  |  | MIC against S. marcescens (Serratia marcescens; 96-well plate, 37° C., 10 h): 50 µg/mL; MIC against K. pneumonia (Klebsiella pneumonia; 96-well plate, 37° C., 10 h): 12.5 µg/mL; MIC against C. diversus (Citrobacter diversus; 96-well plate, 37° C., 10 h): 50 µg/mL; MIC against A. hydrophila (Aeromonas hydrophila; 96-well plate, 37° C., 10 h): 12.5 µg/mL; MIC against E. cloacae (Enterobacter cloacae; 96-well plate, 37° C., 10 h): 50 µg/mL; MIC against P. aeruginosa (Pseudomonas aeruginosa; 96-well plate, 37° C., 10 h): 50 µg/mL; MIC against M. catarrhalis (Moraxella catarrhalis; 96-well plate, 37° C., 10 h): 25 µg/mL; MIC against E. coli BL21 (E. coli BL21; 96-well plate, 37° C., 10 h): 12.5 µg/mL; MIC against P. vulgaris (Proteus vulgaris; 96-well plate, 37° C., 10 h): 25 µg/mL; MIC against P. mirabilis (Proteus mirabilis; 96-well plate, 37° C., 10 h): 12.5 µg/mL |
| PRT1057 (DIDECEMGVPVCPPASSKCINTEGGYVCRCSEGYQGDGIHCL; listed as Homo sapiens) |  | 25 µg/mL |  |  |  |  |  |  |  |  |  |  |  |  |  |  |  |  |  |  | MIC S. marcescens (Serratia marcescens; [1]): 25 µg/mL; MIC K. pneumonia (Klebsiella pneumonia; [1]): 12.5 µg/mL; MIC C. diversus (Citrobacter diversus; [1]): 25 µg/mL; MIC A. hydrophila (Aeromonas hydrophila; [1]): 50 µg/mL; MIC E. cloacae (Enterobacter cloacae; [1]): 25 µg/mL; MIC P. aeruginosa (Pseudomonas aeruginosa; [1]): 25 µg/mL; MIC M. catarrhalis (Moraxella catarrhalis; [1]): 12.5 µg/mL; MIC E. coli BL21 (E. coli BL21; [1]): 50 µg/mL; MIC P. vulgaris (Proteus vulgaris; [1]): 50 µg/mL; MIC P. mirabilis (Proteus mirabilis; [1]): 25 µg/mL |
| PRT820 (YGDNCRHSCLCQNGGTCDPVSGHCACPEGWAGLACE; listed as Homo sapiens) |  | 12.5 µg/mL |  |  |  |  |  |  |  |  |  | 25 µg/mL | 50 µg/mL | 12.5 µg/mL | 50 µg/mL | 12.5 µg/mL | 12.5 µg/mL | 50 µg/mL | 50 µg/mL | 12.5 µg/mL | MIC (μg/mL) P. mirabilis (Proteus mirabilis; 10 h cultivation at 37° C.): 12.5 µg/mL |
| PRT1438 (PVKSCSEPRCFNGGTCQQALYFSDFVCQCPEGFAGKCCE; listed as Homo sapiens) | 12.5 µg/mL | 12.5 µg/mL | 25 µg/mL | 50 µg/mL | 25 µg/mL | 12.5 µg/mL | 50 µg/mL | 12.5 µg/mL | 25 µg/mL | 25 µg/mL | 50 µg/mL |  |  |  |  |  |  |  |  |  |  |
